Assay results: the supplement of paper PMC10627819

Legend:
S. pneumoniae D39V [1] = assay: fitness (endpoint OD595 vs no drug) (fraction); higher = more growth
Summary of the method: (§1)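 Fitness is computed from the optical density at which cultures reach stationary phase, divided by the robust mean of no-drug control wells. Any value above 1 is set to 1. Cultures started at OD595 0.01 in 384-well plates with TSB, LB Lennox or CY at 37 °C, and OD595 was read every 30 min for 14 h against a first-reading background.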

S. aureus Newman [2] = assay: as above
Summary of the method: as §1

S. aureus DSM 20231 [3] = assay: as above
Summary of the method: as §1

B. subtilis 168 [4] = assay: as above
Summary of the method: as §1

S. pneumoniae D39V [5] = assay: Bliss interaction score (quartile over a dose matrix) (fitness difference); higher = more antagonism (negative = synergy)
Summary of the method: (§2)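 Each plate was normalised to the robust mean of its own no-drug wells, using OD595 at entry into stationary phase, with values capped at 1. This normalised growth is the fitness value. The Bliss score is the difference between observed and product-expected fitness, with single-drug fitness inferred from the combination data and quartiles taken over technical, biological and donor/recipient replicates.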

S. aureus Newman [6] = assay: as above
Summary of the method: as §2

S. aureus DSM 20231 [7] = assay: as above
Summary of the method: as §2

B. subtilis 168 [8] = assay: as above
Summary of the method: as §2
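For Bliss interaction score (quartile over a dose matrix) in this document: first quartile when negative (synergy) and third quartile when positive (antagonism).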

CCCCCCCCCC(=O)N[C@@H](Cc1c[nH]c2ccccc12)C(=O)N[C@H](CC(N)=O)C(=O)N[C@@H](CC(=O)O)C(=O)N[C@@H]1C(=O)NCC(=O)N[C@@H](CCCN)C(=O)N[C@@H](CC(=O)O)C(=O)N[C@H](C)C(=O)N[C@@H](CC(=O)O)C(=O)NCC(=O)N[C@H](CO)C(=O)N[C@@H]([C@H](C)CC(=O)O)C(=O)N[C@@H](CC(=O)c2ccccc2N)C(=O)O[C@@H]1C [Daptomycin] + CN[C@@H]1[C@H](O)[C@H](NC)[C@H]2O[C@@]3(O)C(=O)C[C@@H](C)O[C@H]3O[C@@H]2[C@H]1O [Spectinomycin]
fitness
Conditions | first compound 0.125 µg/mL | first compound 0.25 µg/mL | first compound 0.5 µg/mL | first compound 1 µg/mL | first compound 2 µg/mL | first compound 4 µg/mL
B. subtilis 168 [4], partner 2 µg/mL | 0.934 | 0.979 | 0.836 | – | – | –
B. subtilis 168 [4], partner 4 µg/mL | 0.964 | 0.946 | 0.813 | – | – | –
B. subtilis 168 [4], partner 8 µg/mL | 0.863 | 0.944 | 0.835 | – | – | –
S. aureus DSM 20231 [3], partner 4 µg/mL | – | – | ≥ 1 | 0.978 | 0.964 | –
S. aureus DSM 20231 [3], partner 8 µg/mL | – | – | ≥ 1 | 0.96 | 0.946 | –
S. aureus DSM 20231 [3], partner 16 µg/mL | 0.852 | 0.872 | 0.905 | 0.931 | 0.866 | –
S. aureus Newman [2], partner 4 µg/mL | 0.963 | 0.932 | 0.924 | – | – | –
S. aureus Newman [2], partner 8 µg/mL | 0.991 | 0.983 | 0.952 | – | – | –
S. aureus Newman [2], partner 16 µg/mL | 0.915 | 0.917 | 0.905 | – | – | –
S. pneumoniae D39V [1], partner 4 µg/mL | – | – | – | 0.92 | 0.943 | 0.941
S. pneumoniae D39V [1], partner 8 µg/mL | – | – | – | 0.817 | 0.856 | 0.847
S. pneumoniae D39V [1], partner 16 µg/mL | – | – | – | 0.554 | 0.569 | 0.546

fitness, one replicate
Conditions | partner 2 µg/mL | partner 4 µg/mL | partner 8 µg/mL | partner 32 µg/mL | partner 64 µg/mL
B. subtilis 168 [4], first compound 1 µg/mL | 0.704 | 0.71 | 0.751 | – | –
S. aureus DSM 20231 [3], first compound 0.125 µg/mL | – | 0.935 | 0.988 | 0.767 | 0.0669
S. aureus DSM 20231 [3], first compound 0.25 µg/mL | – | 0.977 | 0.998 | 0.7 | 0.0927
S. aureus DSM 20231 [3], first compound 0.5 µg/mL | – | – | – | 0.745 | 0.079
S. aureus Newman [2], first compound 0.125 µg/mL | – | – | – | 0.595 | 0.0775
S. aureus Newman [2], first compound 0.25 µg/mL | – | – | – | 0.63 | 0.0532
S. aureus Newman [2], first compound 0.5 µg/mL | – | – | – | 0.626 | 0.0675

Conditions | Bliss interaction score
B. subtilis 168 [8] | 0.0649
S. aureus DSM 20231 [7] | 0.0629
S. aureus Newman [6] | 0.0696
S. pneumoniae D39V [5] | 0.0673
